Measurements as given in PubChem BioAssay (NCI).
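A five-concentration, 48-hour dose response in 96-well plates underlies each endpoint, interpolated linearly between surrounding concentrations. The concentration for full growth arrest is given as TGI.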

How the values were obtained:
Assay in all cases: NCI anticancer screen, dose series, 48 h
786-0 renal = test system: 786-0 renal
A498 renal = test system: A498 renal
A549 NSCLC = test system: A549 NSCLC
ACHN renal = test system: ACHN renal
CAKI-1 renal = test system: CAKI-1 renal
CCRF-CEM leukemia = test system: CCRF-CEM leukemia
COLO 205 colon = test system: COLO 205 colon
DLD-1 colon = test system: DLD-1 colon
DMS 114 small cell lung = test system: DMS 114 small cell lung
DMS 273 small cell lung = test system: DMS 273 small cell lung
EKVX NSCLC = test system: EKVX NSCLC
HCC-2998 colon = test system: HCC-2998 colon
HCT-116 colon = test system: HCT-116 colon
HCT-15 colon = test system: HCT-15 colon
HL-60(TB) leukemia = test system: HL-60(TB) leukemia
HOP-18 NSCLC = test system: HOP-18 NSCLC
HOP-62 NSCLC = test system: HOP-62 NSCLC
HOP-92 NSCLC = test system: HOP-92 NSCLC
HT29 colon = test system: HT29 colon
IGROV1 ovarian = test system: IGROV1 ovarian
K-562 leukemia = test system: K-562 leukemia
KM12 colon = test system: KM12 colon
KM20L2 colon = test system: KM20L2 colon
LOX IMVI melanoma = test system: LOX IMVI melanoma
LXFL 529 NSCLC = test system: LXFL 529 NSCLC
M14 melanoma = test system: M14 melanoma
M19-MEL melanoma = test system: M19-MEL melanoma
MALME-3M melanoma = test system: MALME-3M melanoma
MOLT-4 leukemia = test system: MOLT-4 leukemia
NCI-H226 lung = test system: NCI-H226 lung
NCI-H23 lung = test system: NCI-H23 lung
NCI-H522 lung = test system: NCI-H522 lung
OVCAR-3 ovarian = test system: OVCAR-3 ovarian
OVCAR-4 ovarian = test system: OVCAR-4 ovarian
OVCAR-5 ovarian = test system: OVCAR-5 ovarian
OVCAR-8 ovarian = test system: OVCAR-8 ovarian
RPMI-8226 leukemia = test system: RPMI-8226 leukemia
RXF 393 renal = test system: RXF 393 renal
RXF-631 renal = test system: RXF-631 renal
SF-268 CNS = test system: SF-268 CNS
SF-295 CNS = test system: SF-295 CNS
SF-539 CNS = test system: SF-539 CNS
SK-MEL-2 melanoma = test system: SK-MEL-2 melanoma
SK-MEL-28 melanoma = test system: SK-MEL-28 melanoma
SK-MEL-5 melanoma = test system: SK-MEL-5 melanoma
SK-OV-3 ovarian = test system: SK-OV-3 ovarian
SN12C renal = test system: SN12C renal
SNB-19 CNS = test system: SNB-19 CNS
SNB-75 CNS = test system: SNB-75 CNS
SNB-78 CNS = test system: SNB-78 CNS
SW-620 colon = test system: SW-620 colon
TK-10 renal = test system: TK-10 renal
U251 CNS = test system: U251 CNS
UACC-257 melanoma = test system: UACC-257 melanoma
UACC-62 melanoma = test system: UACC-62 melanoma
UO-31 renal = test system: UO-31 renal
XF 498 CNS = test system: XF 498 CNS
NCI-H460 lung = test system: NCI-H460 lung
SR leukemia = test system: SR leukemia

COc1cc([C@@H]2c3cc4c(cc3[C@@H](NC(=O)c3ccc(OC(C)=O)cc3)C3COC(=O)[C@@H]32)OCO4)cc(OC)c1O (stereo not given in full)
TGI (786-0 renal): 3.47 µM | TGI (A498 renal): 8.75 µM | TGI (A549 NSCLC): 10.6 µM | TGI (ACHN renal): 3.16 µM | TGI (CAKI-1 renal): 15.8 µM | TGI (CCRF-CEM leukemia): > 100 µM | TGI (COLO 205 colon): 35.7 µM | TGI (DLD-1 colon): 26 µM | TGI (DMS 114 small cell lung): 5.38 µM | TGI (DMS 273 small cell lung): 12.4 µM | TGI (EKVX NSCLC): 21.2 µM | TGI (HCC-2998 colon): 14.7 µM | TGI (HCT-116 colon): 15.3 µM | TGI (HCT-15 colon): 24.4 µM | TGI (HL-60(TB) leukemia): 0.688 µM | TGI (HOP-18 NSCLC): > 100 µM | TGI (HOP-62 NSCLC): 3.12 µM | TGI (HOP-92 NSCLC): 7.05 µM | TGI (HT29 colon): 29.5 µM | TGI (IGROV1 ovarian): 7.77 µM | TGI (K-562 leukemia): 47.2 µM | TGI (KM12 colon): 11.9 µM | TGI (KM20L2 colon): 12.7 µM | TGI (LOX IMVI melanoma): 10.1 µM | TGI (LXFL 529 NSCLC): 44.2 µM | TGI (M14 melanoma): 9.22 µM | TGI (M19-MEL melanoma): 40.1 µM | TGI (MALME-3M melanoma): 11.1 µM | TGI (MOLT-4 leukemia): 2.93 µM | TGI (NCI-H226 lung): 4.46 µM | TGI (NCI-H23 lung): 3.31 µM | TGI (NCI-H522 lung): 4.37 µM | TGI (OVCAR-3 ovarian): 22.3 µM | TGI (OVCAR-4 ovarian): > 100 µM | TGI (OVCAR-5 ovarian): 22.4 µM | TGI (OVCAR-8 ovarian): 18.5 µM | TGI (RPMI-8226 leukemia): 13.2 µM | TGI (RXF 393 renal): 36.3 µM | TGI (RXF-631 renal): 17.3 µM | TGI (SF-268 CNS): > 100 µM | TGI (SF-295 CNS): 50.9 µM | TGI (SF-539 CNS): 3.14 µM | TGI (SK-MEL-2 melanoma): 16.6 µM | TGI (SK-MEL-28 melanoma): 23.5 µM | TGI (SK-MEL-5 melanoma): 13.2 µM | TGI (SK-OV-3 ovarian): 7.88 µM | TGI (SN12C renal): 4.05 µM | TGI (SNB-19 CNS): > 100 µM | TGI (SNB-75 CNS): 5.86 µM | TGI (SNB-78 CNS): > 100 µM | TGI (SW-620 colon): 15 µM | TGI (TK-10 renal): 30.8 µM | TGI (U251 CNS): 2.75 µM | TGI (UACC-257 melanoma): 31.9 µM | TGI (UACC-62 melanoma): 3.14 µM | TGI (UO-31 renal): 30.6 µM | TGI (XF 498 CNS): 6.96 µM

Cc1cc(N(CCC#N)CCC#N)ccc1CC1N=C(c2ccccc2)OC1=O (stereo not given)
TGI (786-0 renal): > 100 µM | TGI (A498 renal): > 100 µM | TGI (A549 NSCLC): > 100 µM | TGI (ACHN renal): > 100 µM | TGI (CAKI-1 renal): > 100 µM | TGI (CCRF-CEM leukemia): > 100 µM | TGI (COLO 205 colon): > 100 µM | TGI (DLD-1 colon): > 100 µM | TGI (DMS 114 small cell lung): > 100 µM | TGI (DMS 273 small cell lung): > 100 µM | TGI (EKVX NSCLC): > 100 µM | TGI (HCC-2998 colon): > 100 µM | TGI (HCT-116 colon): > 100 µM | TGI (HCT-15 colon): > 100 µM | TGI (HL-60(TB) leukemia): > 100 µM | TGI (HOP-62 NSCLC): > 100 µM | TGI (HOP-92 NSCLC): > 100 µM | TGI (HT29 colon): > 100 µM | TGI (IGROV1 ovarian): > 100 µM | TGI (K-562 leukemia): > 100 µM | TGI (KM12 colon): > 100 µM | TGI (KM20L2 colon): > 100 µM | TGI (LOX IMVI melanoma): > 100 µM | TGI (LXFL 529 NSCLC): > 100 µM | TGI (M14 melanoma): > 100 µM | TGI (M19-MEL melanoma): > 100 µM | TGI (MALME-3M melanoma): > 100 µM | TGI (MOLT-4 leukemia): > 100 µM | TGI (NCI-H226 lung): > 100 µM | TGI (NCI-H23 lung): > 100 µM | TGI (NCI-H460 lung): > 100 µM | TGI (NCI-H522 lung): > 100 µM | TGI (OVCAR-3 ovarian): > 100 µM | TGI (OVCAR-4 ovarian): > 100 µM | TGI (OVCAR-5 ovarian): > 100 µM | TGI (OVCAR-8 ovarian): > 100 µM | TGI (RPMI-8226 leukemia): > 100 µM | TGI (RXF-631 renal): > 100 µM | TGI (SF-268 CNS): > 100 µM | TGI (SF-295 CNS): > 100 µM | TGI (SF-539 CNS): > 100 µM | TGI (SK-MEL-2 melanoma): > 100 µM | TGI (SK-MEL-28 melanoma): > 100 µM | TGI (SK-MEL-5 melanoma): > 100 µM | TGI (SK-OV-3 ovarian): > 100 µM | TGI (SN12C renal): > 100 µM | TGI (SNB-19 CNS): > 100 µM | TGI (SNB-75 CNS): > 100 µM | TGI (SW-620 colon): > 100 µM | TGI (TK-10 renal): > 100 µM | TGI (U251 CNS): > 100 µM | TGI (UACC-257 melanoma): > 100 µM | TGI (UACC-62 melanoma): > 100 µM | TGI (UO-31 renal): > 100 µM | TGI (XF 498 CNS): > 100 µM

O=C(CC(=O)N1N=C(c2ccccc2)C(N=Nc2ccccc2Cl)C1=O)Nc1ccccc1Cl (stereo not given)
TGI (786-0 renal): 49.6 µM | TGI (A549 NSCLC): > 100 µM | TGI (ACHN renal): 99.6 µM | TGI (CAKI-1 renal): > 100 µM | TGI (COLO 205 colon): > 100 µM | TGI (DLD-1 colon): > 100 µM | TGI (DMS 114 small cell lung): > 100 µM | TGI (DMS 273 small cell lung): > 100 µM | TGI (EKVX NSCLC): > 100 µM | TGI (HCC-2998 colon): > 100 µM | TGI (HCT-116 colon): > 100 µM | TGI (HCT-15 colon): > 100 µM | TGI (HL-60(TB) leukemia): 25.9 µM | TGI (HOP-62 NSCLC): > 100 µM | TGI (HT29 colon): 44.6 µM | TGI (IGROV1 ovarian): > 100 µM | TGI (K-562 leukemia): > 100 µM | TGI (KM12 colon): > 100 µM | TGI (KM20L2 colon): > 100 µM | TGI (LOX IMVI melanoma): > 100 µM | TGI (LXFL 529 NSCLC): > 100 µM | TGI (M14 melanoma): > 100 µM | TGI (M19-MEL melanoma): > 100 µM | TGI (MOLT-4 leukemia): > 100 µM | TGI (NCI-H226 lung): > 100 µM | TGI (NCI-H23 lung): > 100 µM | TGI (NCI-H460 lung): > 100 µM | TGI (NCI-H522 lung): > 100 µM | TGI (OVCAR-3 ovarian): 81.3 µM | TGI (OVCAR-4 ovarian): 63.2 µM | TGI (OVCAR-5 ovarian): > 100 µM | TGI (OVCAR-8 ovarian): > 100 µM | TGI (RPMI-8226 leukemia): 57.2 µM | TGI (RXF-631 renal): > 100 µM | TGI (SF-268 CNS): > 100 µM | TGI (SF-295 CNS): 65.3 µM | TGI (SF-539 CNS): > 100 µM | TGI (SK-MEL-2 melanoma): > 100 µM | TGI (SK-MEL-28 melanoma): > 100 µM | TGI (SK-MEL-5 melanoma): 52.5 µM | TGI (SK-OV-3 ovarian): > 100 µM | TGI (SN12C renal): > 100 µM | TGI (SNB-19 CNS): > 100 µM | TGI (SNB-75 CNS): 49.9 µM | TGI (SNB-78 CNS): > 100 µM | TGI (SR leukemia): 54.5 µM | TGI (SW-620 colon): > 100 µM | TGI (TK-10 renal): 40.6 µM | TGI (U251 CNS): > 100 µM | TGI (UACC-257 melanoma): > 100 µM | TGI (UACC-62 melanoma): > 100 µM | TGI (UO-31 renal): > 100 µM | TGI (XF 498 CNS): 51.1 µM
